Results reported in US8101666B2, “Methods and compounds for detection of medical disorders” (Aposense Ltd., priority 2004, dated 2012).

What was measured:
[1] = tested on: apoptotic cells in tumor, murine melanoma-derived B16-F10 cells; assay: Targeting of DC in vivo to apoptotic cells in B16-F10 murine melanoma tumor, fluorescent microscopy; design: species or system mice; conditions: 2 mg/mouse i.v., 2 h; for uptake by the apoptotic or the viable tumor cells: data not shown
Procedure: Tumors, and especially aggressive malignancies such as melanoma are characterized, in addition to the abnormal tissue proliferation, also by marked apoptosis of tumor cells. The performance of DC in selective targeting of these apoptotic cells within the tumor was therefore examined. Mice (c57/black; 8 weeks old male mice) were injected subcutaneously bilaterally, in the flank, with murine melanoma-derived B16-F10 cells (ATCC CRL-6475; 10^5 cells/mice in a volume of 100 μl). Prior to injection, the cell line was maintained in culture in Dulbecco's modified Eagle's medium (DMEM), supplemented with 4 mM of L-glutamine; 100 units/ml of penicillin; 100 μg/ml of streptomycin; 12.5 units/ml of nystatin and 10% of fetal calf serum (FCS). Tumors were allowed to grow for 14 days, by which they reached a diameter of 5-7 mm.
Dansyl-cysteine (DC), or the control compounds dansyl-glycine or dansyl-serine (2 mg/mouse each in NaPpi buffer, pH. 7.40) was injected intravenously. Two hours later, mice were scarified and the tumors, as well as other organs were taken, and immediately frozen in liquid nitrogen. Frozen sections were then prepared from each of the organs. Uptake of the examined compounds by the tumors or other organs was assessed by fluorescent microscopy.

amyloid plaques = assay: Detection of amyloid plaques in APP Swedish TG2576 mice, fluorescent microscopy of brain sections; type: in vivo; conditions: i.v., 2 h
Procedure: Studies were carried out in one and a half year old APP Swedish TG2576 mice, which have a mutation of APP. BDA (which lacks a free thiol residue) and NST729 were injected i.v., two hours later, mice were anesthetized and brains were removed into liquid nitrogen for further analysis. Frozen section of 10 μm thickness each were prepared, and visualized by fluorescent microscopy.

[2] = tested on: degenerating neuronal cells; assay: Selective binding of NST729 in vivo to degenerating neuronal cells in a mouse model of motor neuron disease (SOD G93A); conditions: SOD G93A transgenic mice, 1.4 mg/animal i.v., 2 h
Procedure: Studies were carried out in transgenic mice for SOD with point mutation of G93A. NST729 (1.4 mg / animal in 200 μl 50% Cremophor/ trizma-base 0.1M was injected i.v. After two hours, mice were anesthetized and brain +spinal cord were removed into liquid nitrogen for further analysis. Frozen sections of 10 μm thickness were prepared. The slices were visualized by fluorescent microscopy.

[3] = tested on: brain cells undergoing apoptosis following middle cerebral artery (MCA) cauterization; assay: Selective binding of NST729 to cells undergoing cell death following MCA occlusion, fluorescent microscopy of brain sections; type: in vivo; conditions: Balb/C mice
Procedure: Studies were carried out in adult male Balb/C mice, weighing 20-25 g. Ischemia was induced by unilateral cauterization of the middle cerebral artery. Briefly, mice were anesthetized, and ischemia was induced through a subtemporal approach. The craniotomy was performed at the level where the MCA crossed the lateral olfactory tract. […] All visible branches also were occluded to prevent blood supply by passing. The incision sites were clipped closed and the animal was injected with analgesics and allowed to recover.

[4] = tested on: cells undergoing apoptosis, induced by cerebral ischemia due to middle cerebral artery (MCA) occlusion; assay: Selective targeting of NST739 to cells undergoing cell death following MCA occlusion, fluorescent microscopy of brain sections; type: in vivo; conditions: Balb/C mice
Procedure: An in vivo experiment was conducted in mice, in order to show the performance of NST739 in selective binding to cells undergoing apoptosis, induced by cerebral ischemia due to middle cerebral artery (MCA) occlusion.
Studies were carried out in adult male Balb/C mice, weighing 20-25 g. Cerebral ischemia was induced by unilateral cauterization of the middle cerebral artery. Briefly, mice were anesthetized, and ischemia was induced through a subtemporal approach. The craniotomy was performed at the level where the MCA crossed the lateral olfactory tract. […] All visible branches also where occluded to prevent blood supply by passing. The incision sites were clipped closed and the animal was injected with analgesics and allowed to recover. Twenty-two hours after the middle cerebral artery (MCA) cauterization, NST739 or the control compound BDA (1.4 mg/animal each) were injected i.v. At 24 h from the induction of the injury, and two hours after administration of NST739, mice were anesthetized, sacrificed, and brains were removed into liquid nitrogen for further analysis. […] Frozen sections were prepared. The slices were visualized by fluorescent microscopy.

CN(C)c1cccc2c(S(=O)(=O)NCC(=O)O)cccc12 [dansyl-glycine, reference compound]
uptake by the apoptotic or the viable tumor cells ([1]; B16-F10 tumors): did not manifest a significant uptake

CN(C)c1cccc2c(S(=O)(=O)NCCS)cccc12 [NST729, n-(2-mercaptoethyl)-dansylamide]
staining of surrounding brain cells (amyloid plaques; APP Swedish TG2576 mice): remained unstained
intensity of binding to the plaques compared with BDA (fluorescence intensity) (amyloid plaques; APP Swedish TG2576 mice, versus control BDA): markedly higher
visualization of amyloid plaques (amyloid plaques; one and a half year old APP Swedish TG2576 mice): strongly visualized
uptake by degenerating neuronal cells and axons (motor nuclei of the pons) [2]: marked uptake
uptake by other cells in the same region and cells in other brain regions [2]: did not manifest such uptake
binding to cells in the damaged area ([3]; 1.4 mg i.v. 22 h after MCA cauterization, brains removed 2 h later): extensive binding
number of apoptotic events detected compared with BDA ([3]; MCA cauterization, i.v., 2 h, versus control BDA): significantly higher
level of binding (fluorescence intensity) compared with BDA ([3]; MCA cauterization, i.v., 2 h, versus control BDA lacking the thiol group): markedly higher

CN(C)c1cccc2c(S(=O)(=O)N[C@@H](CO)C(=O)O)cccc12 [dansyl-serine, reference compound]
uptake by the apoptotic or the viable tumor cells ([1]; B16-F10 tumors): did not manifest a significant uptake

CN(C)c1cccc2c(S(=O)(=O)N(CCS)CCCF)cccc12 [NST739, N-(3-fluoropropyl)-N-(2-thioethyl)-dansylamide]
binding to cells in the damaged area ([4]; 1.4 mg/animal i.v. 22 h after MCA cauterization, brains removed 2 h later): extensive binding
staining of cells in other brain regions ([4]; MCA cauterization, 1.4 mg/animal i.v., 2 h): remained unstained
level of binding (fluorescence) compared with BDA ([4]; MCA cauterization, 1.4 mg/animal i.v., 2 h, versus control BDA lacking the thiol group): significantly higher

CN(C)c1cccc2c(S(=O)(=O)N[C@@H](CS)C(=O)O)cccc12 [DC, dansyl-cysteine]
binding to tumor cells undergoing cell death ([1]; c57/black mice, B16-F10 tumors): Extensive binding
staining of viable tumor cells ([1]; c57/black mice, B16-F10 tumors): remain unstained
binding to normal, viable small intestine tissue ([1]; same animal): lack of binding
